This is an account of results in patent US20240327389A1, “LACTONE AND LACTAM CONTAINING COMPOUNDS USEFUL AS IMMUNOMODULATORS” (BRISTOL-MYERS SQUIBB COMPANY, priority 2021, published 2024).

Molecules are shown by their SMILES.

Chain of PD-1/PD-L1 interaction (PD-1-Ig / PD-L1-His) (Q9NZQ7 18-239): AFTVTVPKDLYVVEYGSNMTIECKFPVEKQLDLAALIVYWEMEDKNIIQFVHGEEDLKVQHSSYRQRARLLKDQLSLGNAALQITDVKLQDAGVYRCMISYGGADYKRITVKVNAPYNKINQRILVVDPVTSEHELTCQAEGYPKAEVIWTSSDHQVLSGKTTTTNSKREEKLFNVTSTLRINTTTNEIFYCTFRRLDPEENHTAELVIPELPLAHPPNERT

The assay concerns the target PD-1/PD-L1 interaction (PD-1-Ig / PD-L1-His) (Homo sapiens (Human), UniProt Q9NZQ7). Nature of the assay: PD-1/PD-L1 Homogenous Time-Resolved Fluorescence (HTRF) binding assay. The settings on record: PD-L1-His 10 nM final, PD-1-Ig 20 nM final. An excerpt:
The ability of the compounds of the invention to bind to PD-L1 was investigated using a PD-1/PD-L1 Homogenous Time-Resolved Fluorescence (HTRF) binding assay.
The interaction of PD-1 and PD-L1 can be assessed using soluble, purified preparations of the extracellular domains of the two proteins. The PD-1 and PD-L1 protein extracellular domains were expressed as fusion proteins with detection tags, for PD-1, the tag was the Fc portion of Immunoglobulin (PD-1-Ig) and for PD-L1 it was the 6 histidine motif (PD-L1-His). All binding studies were performed in an HTRF assay buffer consisting of dPBS supplemented with 0.1% […] bovine serum albumin and 0.05% (v/v) Tween-20. For the h/PD-L1-His binding assay, inhibitors were pre-incubated with PD-L1-His (10 nM final) for 15 m in 4 μl of assay buffer, followed by addition of PD-1-Ig (20 nM final) in 1 μl of assay buffer and further incubation for 15 m. HTRF detection was achieved using europium crypate-labeled anti-Ig (1 nM final) and allophycocyanin (APC) labeled anti-His (20 nM final). Antibodies were diluted in HTRF detection buffer and 5 μl was dispensed on top of the binding reaction. The reaction mixture was allowed to equilibrate for 30 minutes and the resulting signal (665 nm/620 nm ratio) was obtained using an EnVision fluorometer. Additional binding assays were established between the human proteins PD-1-Ig/PD-L2-His (20 & 5 nM, respectively) and CD80-His/PD-L1-Ig (100 & 10 nM, respectively).
Recombinant Proteins: Human PD-1 (25-167) with a C-terminal human Fc domain of immunoglobulin G (Ig) epitope tag [hPD-1 (25-167)-3S-IG] and human PD-L1 (18-239) with a C-terminal His epitope tag [hPD-L1(18-239)-TVMV-His] were expressed in HEK293T cells and purified sequentially by ProteinA affinity chromatography and size exclusion chromatography. Human PD-L2-His and CD80-His was obtained through commercial sources.
Homogenous Time-Resolved Fluorescence (HTRF) Assays of Binding of Soluble PD-1 to Soluble PD-L1. Soluble PD-1 and soluble PD-L1 refers to proteins with carboxyl-end truncations that remove the transmembrane-spanning regions and are fused to heterologous sequences, specifically the Fc portion of the human immunoglobuling G sequence (Ig) or the hexahistidine epitope tag (His). All binding studies were performed in an HTRF assay buffer consisting of dPBS supplemented with 0.1% (w/v) bovine serum albumin and 0.05% (v/v) Tween-20. For the PD-1-Ig/PD-L1-His binding assay, inhibitors were pre-incubated with PD-L1-His (10 nM final) for 15 m in 4 μl of assay buffer, followed by addition of PD-1-Ig (20 nM final) in 1 μl of assay buffer and further incubation for 15 m. PD-L1 fusion proteins from either human, cynomologous macaques, mouse, or other species were used. HTRF detection was achieved using europium crypate-labeled anti-Ig monoclonal antibody (1 nM final) and allophycocyanin (APC) labeled anti-His monoclonal antibody (20 nM final). Antibodies were diluted in HTRF detection buffer and 5 μl was dispensed on top of binding reaction. The reaction was allowed to equilibrate for 30 minutes and signal (665 nm/620 nm ratio) was obtained using an EnVision fluorometer. Additional binding assays were established between PD-1-Ig/PD-L2-His (20 and 5 nM, respectively), CD80-His/PD-L1-Ig (100 and 10 nM, respectively) and CD80-His/CTLA4-Ig (10 and 5 nM, respectively).
Recombinant Proteins. Carboxyl-truncated human PD-1 (amino acids 25-167) with a C-terminal human Ig epitope tag [hPD-1 (25-167)-3S-IG] and human PD-L1 (amino acids 18-239) with a C-terminal His epitope tag [hPD-L1(19-239)-tobacco vein mottling virus protease cleavage site (TVMV)-His] were expressed in HEK293T cells and purified sequentially by recombinant Protein A affinity chromatography and size exclusion chromatography. Human PD-L2-His (Sino Biologicals), CD80-His (Sino Biologicals), CTLA4-Ig (RnD Systems) were all obtained through commercial sources.
Background: TR-FRET usually uses a lanthanide donor and a delayed reading to cut background.
For the molecule `COc1cc(OCc2cccc(-c3cccc(OCC4CCCN(C)C4)c3Cl)c2C)c(Cl)cc1CN[C@@H]1CCOC1=O` (stereo partly shown) [Compound 1041], the IC50 came to 9.1 nM.

For the molecule `Cc1c(COc2cc(OCc3cncc(C#N)c3)c(CNC3CCNC3=O)cc2Cl)cccc1-c1cccc(OCC2CCCN(C)C2)c1Cl` (stereo not shown) [Compound 1011], the IC50 stood at 1.5 nM.

With `COc1cc(OCc2cccc(-c3cccc(OCC4CCCN(C)C4)c3Cl)c2C)c(Cl)cc1CNC1CCCNC1=O` (stereo not shown) [Compound 1035], the IC50 was 2.1 nM.

`COc1cc(OCc2cccc(-c3cccc(OCC4CCCN(C)C4)c3Cl)c2C)c(Cl)cc1CNC1CC(C)OC1=O` (stereo not shown) [Compound 1033] yielded an IC50 of 11.5 nM.

In turn, `Cc1c(COc2cc(OCc3cncc(C#N)c3)c(CNC3(C)CC(C)(C)OC3=O)cc2Cl)cccc1-c1cccc(OCC2CCCN(C)C2)c1Cl` (stereo not shown) [Compound 1009] showed an IC50 of 3 nM.

Turning to `Cc1c(COc2cc(OCc3cncc(C#N)c3)c(CNC3CCN(C)C3=O)cc2Cl)cccc1-c1cccc(OCC2CCCN(C)C2)c1Cl` (stereo not shown) [Compound 1012], the IC50 is 2.9 nM.

`COc1cc(OCc2cccc(-c3cccc(OCC4CCCN(C)C4)c3Cl)c2C)c(Cl)cc1CN[C@H]1CCOC1=O` (stereo partly shown) [Compound 1040]: the IC50 was found to be 6.7 nM.

The molecule `Cc1c(COc2cc(OCc3cncc(C#N)c3)c(CN[C@H]3CCOC3=O)cc2Cl)cccc1-c1cccc(COc2cc(OCc3cncc(C#N)c3)c(CN[C@H]3CCOC3=O)cc2Cl)c1C` [Compound 1019] registered an IC50 of 18.3 nM.

In turn, `COc1cc(OCc2cccc(-c3cccc(OCC4CCCN(C)C4)c3Cl)c2C)c(Cl)cc1CNC1CC(C)(C)OC1=O` (stereo not shown) [Compound 1034] had an IC50 of 7.4 nM.

As to `Cc1c(COc2cc(OCc3cncc(C#N)c3)c(CN(C)C3(C)CCOC3=O)cc2Cl)cccc1-c1cccc(COc2cc(OCc3cncc(C#N)c3)c(CN(C)C3(C)CCOC3=O)cc2Cl)c1C` (stereo not shown) [Compound 1051], the IC50 is 383 nM.

`Cc1c(COc2cc3c(cc2Cl)CN(C2CCOC2=O)CC(O)CO3)cccc1-c1cccc(OCC2CCCN(C)C2)c1Cl` (stereo not shown) [Compound 1049] came in with an IC50 of 11.5 nM.

`Cc1c(COc2cc(OCc3cncc(C#N)c3)c(CNC3CC(C)OC3=O)cc2Cl)cccc1-c1cccc(COc2cc(OCc3cncc(C#N)c3)c(CNC3CC(C)OC3=O)cc2Cl)c1C` (stereo not shown) [Compound 1024] displayed an IC50 of 21.4 nM.

`Cc1c(COc2cc(OCc3cncc(C#N)c3)c(CNC3CCCNC3=O)cc2Cl)cccc1-c1cccc(OCC2CCCN(C)C2)c1Cl` (stereo not shown) [Compound 1014]: the IC50 came out at 3.2 nM.

Molecule `Cc1c(COc2cc(OCc3cncc(C#N)c3)c(CN[C@H]3CCNC3=O)cc2Cl)cccc1-c1cccc(OCC2CCCN(C)C2)c1Cl` (stereo partly shown) [Compound 1010] gave an IC50 of 2.3 nM.

`Cc1c(COc2cc(O)c(CN[C@H]3CCOC3=O)cc2Cl)cccc1-c1cccc(OCC2CCCN(C)C2)c1Cl` (stereo partly shown) [Compound 1031] came in with an IC50 of 39.3 nM. Against the preceding molecule, the IC50 is about 17-fold higher.

With `COc1cc(OCc2cccc(-c3cccc(OCC4CCCN(C)C4)c3Cl)c2C)c(Cl)cc1CN[C@H]1COC(=O)C1` (stereo partly shown) [Compound 1042], the IC50 came out at 5.6 nM. Compared with the last molecule, the IC50 is about 7-fold lower.

`Cc1c(COc2cc(OCc3cncc(C#N)c3)c(CNC3CCNC3=O)cc2Cl)cccc1-c1cccc(OCC2CCCN(C)C2)c1Cl` (stereo not shown) [Compound 1027] yielded a 50% inhibitory concentration (IC50) of 2.5 nM.

As to `Cc1c(COc2cc(O)c(CN[C@H]3COC(=O)C3)cc2Cl)cccc1-c1cccc(OCC2CCCN(C)C2)c1Cl` (stereo partly shown) [Compound 1028], the IC50 came out at 44.5 nM.

Molecule `Cc1c(COc2cc(OCc3cncc(C#N)c3)c(CNC3CC(C)(C)OC3=O)cc2Cl)cccc1-c1cccc(OCC2CCCN(C)C2)c1Cl` (stereo not shown) [Compound 1007] registered an IC50 of 3.5 nM.

The molecule `N#Cc1cncc(COc2cc(OCc3cccc(-c4cccc(COc5cc(OCc6cncc(C#N)c6)c(CN[C@H]6CCOC6=O)cc5Cl)c4Cl)c3Cl)c(Cl)cc2CN[C@H]2CCOC2=O)c1` [Compound 1026] gave an IC50 of 10.4 nM. Compared with the last molecule, the IC50 is about 3-fold higher.

Molecule `Cc1c(COc2cc(O)c(CNC3(C)CCOC3=O)cc2Cl)cccc1-c1cccc(OCC2CCCN(C)C2)c1Cl` (stereo not shown) [Compound 1029] showed an IC50 of 132 nM.

The molecule `Cc1c(COc2cc(OCc3cncc(C#N)c3)c(CNC3(C)CCOC3=O)cc2Cl)cccc1-c1cccc(OCC2CCCN(C)C2)c1Cl` (stereo not shown) [Compound 1005] returned an IC50 of 1.7 nM.

Usually IC50 stands for the point on the concentration scale where inhibition reaches its midpoint. Higher therefore signals weaker potency.
